PubChem BioAssay (NCI)
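Five concentrations, 48 hours, 96-well plates. At the GI50, growth is halved. The concentration for full growth arrest is given as TGI.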

Key:
Experiment in all cases: NCI tumour cell line growth inhibition, 48 h; in the data active = GI50 below about 0.43 µM; inactive = the rest
786-0 renal = test system: 786-0 renal
A498 renal = test system: A498 renal
A549 NSCLC = test system: A549 NSCLC
ACHN renal = test system: ACHN renal
BT-549 breast = test system: BT-549 breast
CAKI-1 renal = test system: CAKI-1 renal
CCRF-CEM leukemia = test system: CCRF-CEM leukemia
COLO 205 colon = test system: COLO 205 colon
DU-145 prostate = test system: DU-145 prostate
EKVX NSCLC = test system: EKVX NSCLC
HCC-2998 colon = test system: HCC-2998 colon
HCT-116 colon = test system: HCT-116 colon
HCT-15 colon = test system: HCT-15 colon
HL-60(TB) leukemia = test system: HL-60(TB) leukemia
HOP-62 NSCLC = test system: HOP-62 NSCLC
HOP-92 NSCLC = test system: HOP-92 NSCLC
HT29 colon = test system: HT29 colon
IGROV1 ovarian = test system: IGROV1 ovarian
K-562 leukemia = test system: K-562 leukemia
KM12 colon = test system: KM12 colon
LOX IMVI melanoma = test system: LOX IMVI melanoma
M14 melanoma = test system: M14 melanoma
MALME-3M melanoma = test system: MALME-3M melanoma
MCF7 breast = test system: MCF7 breast
MDA-MB-231 breast = test system: MDA-MB-231 breast
MDA-MB-435 = test system: MDA-MB-435
MOLT-4 leukemia = test system: MOLT-4 leukemia
NCI-H226 lung = test system: NCI-H226 lung
NCI-H23 lung = test system: NCI-H23 lung
NCI-H460 lung = test system: NCI-H460 lung
NCI/ADR-RES ovarian = test system: NCI/ADR-RES ovarian
OVCAR-3 ovarian = test system: OVCAR-3 ovarian
OVCAR-4 ovarian = test system: OVCAR-4 ovarian
OVCAR-5 ovarian = test system: OVCAR-5 ovarian
OVCAR-8 ovarian = test system: OVCAR-8 ovarian
PC-3 prostate = test system: PC-3 prostate
RPMI-8226 leukemia = test system: RPMI-8226 leukemia
RXF 393 renal = test system: RXF 393 renal
SF-268 CNS = test system: SF-268 CNS
SF-295 CNS = test system: SF-295 CNS
SF-539 CNS = test system: SF-539 CNS
SK-MEL-2 melanoma = test system: SK-MEL-2 melanoma
SK-OV-3 ovarian = test system: SK-OV-3 ovarian
SN12C renal = test system: SN12C renal
SNB-19 CNS = test system: SNB-19 CNS
SNB-75 CNS = test system: SNB-75 CNS
SR leukemia = test system: SR leukemia
SW-620 colon = test system: SW-620 colon
T-47D breast = test system: T-47D breast
TK-10 renal = test system: TK-10 renal
U251 CNS = test system: U251 CNS
UACC-257 melanoma = test system: UACC-257 melanoma
UACC-62 melanoma = test system: UACC-62 melanoma
UO-31 renal = test system: UO-31 renal

COc1ccc2c(c1)c(-c1nonc1-c1cn(C)c3ccccc13)cn2C
988 nM: TGI (A498 renal)
671 nM: TGI (SNB-75 CNS)
1030 nM: TGI (RXF 393 renal)
> 100000 nM: TGI (786-0 renal) | TGI (A549 NSCLC) | TGI (ACHN renal) | TGI (BT-549 breast) | TGI (CAKI-1 renal) | TGI (CCRF-CEM leukemia) | TGI (COLO 205 colon) | TGI (DU-145 prostate) | TGI (EKVX NSCLC) | TGI (HCC-2998 colon) | TGI (HCT-116 colon) | TGI (HCT-15 colon) | TGI (HOP-62 NSCLC) | TGI (HOP-92 NSCLC) | TGI (HT29 colon) | TGI (IGROV1 ovarian) | TGI (K-562 leukemia) | TGI (KM12 colon) | TGI (LOX IMVI melanoma) | TGI (M14 melanoma) | TGI (MALME-3M melanoma) | TGI (MCF7 breast) | TGI (MDA-MB-231 breast) | TGI (MOLT-4 leukemia) | TGI (NCI-H226 lung) | TGI (NCI-H23 lung) | TGI (NCI-H460 lung) | TGI (NCI/ADR-RES ovarian) | TGI (OVCAR-4 ovarian) | TGI (OVCAR-5 ovarian) | TGI (OVCAR-8 ovarian) | TGI (PC-3 prostate) | TGI (RPMI-8226 leukemia) | TGI (SF-268 CNS) | TGI (SF-295 CNS) | TGI (SK-MEL-2 melanoma) | TGI (SK-OV-3 ovarian) | TGI (SN12C renal) | TGI (SNB-19 CNS) | TGI (SR leukemia) | TGI (SW-620 colon) | TGI (T-47D breast) | TGI (TK-10 renal) | TGI (U251 CNS) | TGI (UACC-257 melanoma) | TGI (UACC-62 melanoma) | TGI (UO-31 renal)
554 nM: TGI (MDA-MB-435)
1530 nM: TGI (SF-539 CNS)
inactive: GI50 (786-0 renal) 628 nM | GI50 (A549 NSCLC) 629 nM | GI50 (ACHN renal) 621 nM | GI50 (BT-549 breast) 798 nM | GI50 (COLO 205 colon) 479 nM | GI50 (DU-145 prostate) 528 nM | GI50 (EKVX NSCLC) 1110 nM | GI50 (HCC-2998 colon) 1110 nM | GI50 (HCT-116 colon) 441 nM | GI50 (HCT-15 colon) 456 nM | GI50 (HOP-62 NSCLC) 670 nM | GI50 (HOP-92 NSCLC) 890 nM | GI50 (IGROV1 ovarian) 577 nM | GI50 (LOX IMVI melanoma) 588 nM | GI50 (MALME-3M melanoma) 675 nM | GI50 (MDA-MB-231 breast) 877 nM | GI50 (MOLT-4 leukemia) 668 nM | GI50 (NCI-H226 lung) 998 nM | GI50 (NCI-H23 lung) 996 nM | GI50 (OVCAR-4 ovarian) 1680 nM | GI50 (OVCAR-5 ovarian) 1250 nM | GI50 (OVCAR-8 ovarian) 570 nM | GI50 (PC-3 prostate) 481 nM | GI50 (RPMI-8226 leukemia) 634 nM | GI50 (SF-268 CNS) 1290 nM | GI50 (SK-MEL-2 melanoma) 554 nM | GI50 (SK-OV-3 ovarian) 536 nM | GI50 (SN12C renal) 697 nM | GI50 (SNB-19 CNS) 556 nM | GI50 (T-47D breast) 542 nM | GI50 (TK-10 renal) 2260 nM | GI50 (U251 CNS) 440 nM | GI50 (UACC-257 melanoma) 463 nM | GI50 (UACC-62 melanoma) 493 nM | GI50 (UO-31 renal) 430 nM
active: GI50 (A498 renal) 332 nM | GI50 (CAKI-1 renal) 382 nM | GI50 (CCRF-CEM leukemia) 374 nM | GI50 (HL-60(TB) leukemia) 340 nM | GI50 (HT29 colon) 357 nM | GI50 (K-562 leukemia) 300 nM | GI50 (KM12 colon) 414 nM | GI50 (M14 melanoma) 373 nM | GI50 (MCF7 breast) 364 nM | GI50 (MDA-MB-435) 169 nM | GI50 (NCI-H460 lung) 403 nM | GI50 (NCI/ADR-RES ovarian) 408 nM | GI50 (OVCAR-3 ovarian) 336 nM | GI50 (RXF 393 renal) 270 nM | GI50 (SF-295 CNS) 343 nM | GI50 (SF-539 CNS) 312 nM | GI50 (SNB-75 CNS) 198 nM | GI50 (SR leukemia) 313 nM | GI50 (SW-620 colon) 367 nM
8750 nM: TGI (OVCAR-3 ovarian)
